Test results published in US20230279016A1, “Tetrahydropyrazolopyrimidines and Related Analogs for Inhibiting YAP/TAZ-TEAD” (THE KATHOLIEKE UNIVERSITEIT LEUVEN, priority 2021, published 2023).

Test system: YAP/TAZ-TEAD transcription
Assay: Reporter gene assay for measuring the inhibition of YAP/TAZ-TEAD transcription (TEAD-responsive element luciferase reporter in Hek293T cells)
Assay type: cell-based
Settings: Hek293T cells transiently transfected with TEAD-responsive element luciferase reporter, 24 hours incubation
Protocol: Hek293T cells are cultured in DMEM supplemented with 10% fetal bovine serum, Sodium pyruvate, Sodium bicarbonate, L-glutamine. The cells are harvested and transiently transfected with TEAD-responsive element luciferase reporter. Transfected cells are plated in 384-wells plate containing pre-diluted compounds. After 24 hours incubation at 37° C./5%CO2, assay plates were cooled down to RT and levelled to an equal volume per well, prior to the addition of 25 uL luciferase substrate SteadyLite (Perkin Elmer)/well. The plate was shaken for 10 min at 600 rpm, centrifuged for 1min at 500 rpm and measured with an Envision reader (PerkinElmer). The amount of relative light units produced by the TEAD reporter is used to calculated percent of inhibition.
The percent of reporter inhibition was calculated in the presence of a positive control inhibitor (100% inhibition) versus a condition with the presence of the vehicle basal activity of the reporter (0% inhibition). The ability of a test compound to inhibit this activity was determined as:
Percentage inhibition=[1-((RLU determined in the presence of vehicle—RLU determined for sample with test compound present) divided by (RLU determined in the presence of vehicle — RLU determined for sample with positive control inhibitor))] * 100
The activities of the example compounds tested are depicted in the table below. The activity ranges A, B and C refer to EC50 values in the reporter gene assay as described as follows: “A”: EC50 <1 μM; “B” : 1 μM≤EC50≤20 μM and “C” : EC50>20 μM, NT=not tested.

EC50 [nM]	Compound
< 1000	C=CC(=O)NCC1CN(c2ccc(C(F)(F)F)c(F)c2)c2ccnn2C1 (single isomer, unassigned) [Cpd. No. 015-En2, (R)- or (S)-N-((4-(3-fluoro-4-(trifluoromethyl)phenyl)-4,5,6,7-tetrahydropyrazolo[1,5-a]pyrimidin-6-yl)methyl)acrylamide]
1000 to 20000	C=CC(=O)NCC1CN(c2ccc3scnc3c2)c2ccnn2C1 (single isomer, unassigned) [Cpd. No. 026-En2, (R)- or (S)-N-((4-(benzo[d]thiazol-5-yl)-4,5,6,7-tetrahydropyrazolo[1,5-a]pyrimidin-6-yl)methyl)acrylamide]
< 1000	C=CC(=O)NCC1CN(c2ccc(C(F)(F)F)cc2)c2cc(C)nn2C1 (single isomer, unassigned) [Cpd. No. 029-En2, (R)- or (S)-N-((2-methyl-4-(4-(trifluoromethyl)phenyl)-4,5,6,7-tetrahydropyrazolo[1,5-a]pyrimidin-6-yl)methyl)acrylamide]
< 1000	C=CC(=O)NCC1CN(c2ccc(C(F)(F)F)cc2)c2cc(C3CC3)nn2C1 (single isomer, unassigned) [Cpd. No. 031-En1, (R)- or (S)-N-((2-cyclopropyl-4-(4-(trifluoromethyl)phenyl)-4,5,6,7-tetrahydropyrazolo[1,5-a]pyrimidin-6-yl)methyl)acrylamide]
< 1000	C=CC(=O)NCC1CN(c2ccc(C(F)(F)F)cc2)c2cc(C3CC3)nn2C1 (single isomer, unassigned) [Cpd. No. 031-En2, (R)- or (S)-N-((2-cyclopropyl-4-(4-(trifluoromethyl)phenyl)-4,5,6,7-tetrahydropyrazolo[1,5-a]pyrimidin-6-yl)methyl)acrylamide]
< 1000	C=CC(=O)NCC1CN(c2ccc(C(F)(F)F)cc2)c2cc(CC3CC3)nn2C1 (single isomer, unassigned) [Cpd. No. 032-En2, (R)- or (S)-N-((2-(cyclopropylmethyl)-4-(4-(trifluoromethyl)phenyl)-4,5,6,7-tetrahydropyrazolo[1,5-a]pyrimidin-6-yl)methyl)acrylamide]
< 1000	C=CC(=O)NCC1CN(c2ccc(C(F)(F)F)cc2)c2cc(C#N)nn2C1 (single isomer, unassigned) [Cpd. No. 033-En2, (R)- or (S)-N-((2-cyano-4-(4-(trifluoromethyl)phenyl)-4,5,6,7-tetrahydropyrazolo[1,5-a]pyrimidin-6-yl)methyl)acrylamide]
< 1000	C=CC(=O)NCC1CN(c2ccc(C(F)(F)F)cc2)c2cc(C(F)(F)F)nn2C1 (single isomer, unassigned) [Cpd. No. 034-En1, (R)- or (S)-N-((2-(trifluoromethyl)-4-(4-(trifluoromethyl)phenyl)-4,5,6,7-tetrahydropyrazolo[1,5-a]pyrimidin-6-yl)methyl)acrylamide]
1000 to 20000	C=CC(=O)NCC1CN(C(=O)C2CCCCC2)c2ccnn2C1 (single isomer, unassigned) [Cpd. No. 046-En2, (R)- or (S)-N-((4-(cyclohexanecarbonyl)-4,5,6,7-tetrahydropyrazolo[1,5-a]pyrimidin-6-yl)methyl)acrylamide]

Further lines, the compound ahead of its results:

Compound	EC50 [nM]
C=CC(=O)NCC1CN(c2ccc(C(F)(F)F)c(F)c2)c2ccnn2C1 (single isomer, unassigned) [Cpd. No. 015-En1, (R)- or (S)-N-((4-(3-fluoro-4-(trifluoromethyl)phenyl)-4,5,6,7-tetrahydropyrazolo[1,5-a]pyrimidin-6-yl)methyl)acrylamide]	< 1000
C=CC(=O)NCC1CN(c2ccc(-c3ccccc3)cc2)c2ccnn2C1 (single isomer, unassigned) [Cpd. No. 017-En1, (R)- or (S)-N-((4-([1,1′-biphenyl]-4-yl)-4,5,6,7-tetrahydropyrazolo[1,5-a]pyrimidin-6-yl)methyl)acrylamide]	> 20000
C=CC(=O)NCC1CN(c2ccc(-c3ccccc3)cc2)c2ccnn2C1 (single isomer, unassigned) [Cpd. No. 017-En2, (R)- or (S)-N-((4-([1,1′-biphenyl]-4-yl)-4,5,6,7-tetrahydropyrazolo[1,5-a]pyrimidin-6-yl)methyl)acrylamide]	< 1000
C=CC(=O)NCC1CN(c2ccn(C)c(=O)c2)c2ccnn2C1 (single isomer, unassigned) [Cpd. No. 024-En2, (R)- or (S)-N-((4-(1-methyl-2-oxo-1,2-dihydropyridin-4-yl)-4,5,6,7-tetrahydropyrazolo[1,5-a]pyrimidin-6-yl)methyl)acrylamide]	> 20000
CCC(=O)NCC1CN(c2ccc(C(F)(F)F)cc2)c2ccnn2C1 (single isomer, unassigned) [Cpd. No. 028-En1, (R)- or (S)-N-((4-(4-(trifluoromethyl)phenyl)-4,5,6,7-tetrahydropyrazolo[1,5-a]pyrimidin-6-yl)methyl)propionamide]	> 20000
CCC(=O)NCC1CN(c2ccc(C(F)(F)F)cc2)c2ccnn2C1 (single isomer, unassigned) [Cpd. No. 028-En2, (R)- or (S)-N-((4-(4-(trifluoromethyl)phenyl)-4,5,6,7-tetrahydropyrazolo[1,5-a]pyrimidin-6-yl)methyl)propionamide]	< 1000
C=CC(=O)NCC1CN(c2ccc(C(F)(F)F)cc2)c2cc(C)nn2C1 (single isomer, unassigned) [Cpd. No. 029-En1, (R)- or (S)-N-((2-methyl-4-(4-(trifluoromethyl)phenyl)-4,5,6,7-tetrahydropyrazolo[1,5-a]pyrimidin-6-yl)methyl)acrylamide]	< 1000
C=CC(=O)NCC1CN(c2ccc(OC(F)(F)F)cc2)c2cc(C)nn2C1 (single isomer, unassigned) [Cpd. No. 030-En1, (R)- or (S)-N-((2-methyl-4-(4-(trifluoromethoxy)phenyl)-4,5,6,7-tetrahydropyrazolo[1,5-a]pyrimidin-6-yl)methyl)acrylamide]	< 1000
C=CC(=O)NCC1CN(c2ccc(OC(F)(F)F)cc2)c2cc(C)nn2C1 (single isomer, unassigned) [Cpd. No. 030-En2, (R)- or (S)-N-((2-methyl-4-(4-(trifluoromethoxy)phenyl)-4,5,6,7-tetrahydropyrazolo[1,5-a]pyrimidin-6-yl)methyl)acrylamide]	< 1000
C=CC(=O)NCC1CN(c2ccc(C(F)(F)F)cc2)c2cc(CC3CC3)nn2C1 (single isomer, unassigned) [Cpd. No. 032-En1, (R)- or (S)-N-((2-(cyclopropylmethyl)-4-(4-(trifluoromethyl)phenyl)-4,5,6,7-tetrahydropyrazolo[1,5-a]pyrimidin-6-yl)methyl)acrylamide]	< 1000
C=CC(=O)NCC1CN(c2ccc(C(F)(F)F)cc2)c2cc(C#N)nn2C1 (single isomer, unassigned) [Cpd. No. 033-En1, (R)- or (S)-N-((2-cyano-4-(4-(trifluoromethyl)phenyl)-4,5,6,7-tetrahydropyrazolo[1,5-a]pyrimidin-6-yl)methyl)acrylamide]	1000 to 20000
C=CC(=O)NCC1CN(c2ccc(C(F)(F)F)cc2)c2cc(C(F)(F)F)nn2C1 (single isomer, unassigned) [Cpd. No. 034-En2, (R)- or (S)-N-((2-(trifluoromethyl)-4-(4-(trifluoromethyl)phenyl)-4,5,6,7-tetrahydropyrazolo[1,5-a]pyrimidin-6-yl)methyl)acrylamide]	< 1000
C=CC(=O)NCC1CN(C(=O)C2CCCCC2)c2ccnn2C1 (single isomer, unassigned) [Cpd. No. 046-En1, (R)- or (S)-N-((4-(cyclohexanecarbonyl)-4,5,6,7-tetrahydropyrazolo[1,5-a]pyrimidin-6-yl)methyl)acrylamide]	1000 to 20000

Same assay, conditions: Homo sapiens, HEK-293T, 24 h, Hek293T cells transiently transfected with TEAD-responsive element luciferase reporter, 24 hours incubation

EC50 [nM]	Compound
< 1000	C=CC(=O)NCC1CN(c2ccc(Br)cc2)c2ccnn2C1 (single isomer, unassigned) [Cpd. No. 021-En1, (R)- or (S)-N-((4-(4-bromophenyl)-4,5,6,7-tetrahydropyrazolo[1,5-a]pyrimidin-6-yl)methyl)acrylamide]
> 20000	C=CC(=O)NCC1CN(c2ccn(C)c(=O)c2)c2ccnn2C1 (single isomer, unassigned) [Cpd. No. 024-En1, (R)- or (S)-N-((4-(1-methyl-2-oxo-1,2-dihydropyridin-4-yl)-4,5,6,7-tetrahydropyrazolo[1,5-a]pyrimidin-6-yl)methyl)acrylamide]

The remaining lines, values behind:

Compound	EC50 [nM]
C=CC(=O)NCC1CN(c2ccc3scnc3c2)c2ccnn2C1 (single isomer, unassigned) [Cpd. No. 026-En1, (R)- or (S)-N-((4-(benzo[d]thiazol-5-yl)-4,5,6,7-tetrahydropyrazolo[1,5-a]pyrimidin-6-yl)methyl)acrylamide]	1000 to 20000
C=CC(=O)NCC1CN(c2ccc(OC(F)(F)F)cc2)c2cc(C(F)(F)F)nn2C1 (single isomer, unassigned) [Cpd. No. 035-En1, (R)- or (S)-N-((4-(4-(trifluoromethoxy)phenyl)-2-(trifluoromethyl)-4,5,6,7-tetrahydropyrazolo[1,5-a]pyrimidin-6-yl)methyl)acrylamide]	< 1000
